pIC50: −log10 of the molar value.

Chain of Recombinant human factor B (P00751 26-764): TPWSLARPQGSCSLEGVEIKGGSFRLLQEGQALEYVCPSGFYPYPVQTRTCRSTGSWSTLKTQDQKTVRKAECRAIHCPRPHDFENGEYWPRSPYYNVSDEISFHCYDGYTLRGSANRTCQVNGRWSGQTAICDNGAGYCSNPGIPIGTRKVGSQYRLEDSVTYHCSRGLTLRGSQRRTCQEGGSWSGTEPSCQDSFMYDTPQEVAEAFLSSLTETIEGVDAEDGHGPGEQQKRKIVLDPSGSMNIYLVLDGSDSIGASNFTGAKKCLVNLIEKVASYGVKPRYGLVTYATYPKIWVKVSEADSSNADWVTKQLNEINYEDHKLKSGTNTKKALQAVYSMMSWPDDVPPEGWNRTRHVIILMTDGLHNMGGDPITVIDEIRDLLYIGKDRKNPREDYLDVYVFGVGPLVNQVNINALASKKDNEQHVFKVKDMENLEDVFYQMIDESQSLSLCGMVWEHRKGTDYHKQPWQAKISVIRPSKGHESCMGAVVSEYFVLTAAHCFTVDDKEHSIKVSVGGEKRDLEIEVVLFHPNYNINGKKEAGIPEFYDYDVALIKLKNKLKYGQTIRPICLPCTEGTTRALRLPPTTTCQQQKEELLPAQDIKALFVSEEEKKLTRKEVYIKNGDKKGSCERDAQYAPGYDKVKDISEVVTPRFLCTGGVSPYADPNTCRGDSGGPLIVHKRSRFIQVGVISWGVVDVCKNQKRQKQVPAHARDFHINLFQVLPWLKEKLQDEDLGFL

The assay addresses Recombinant human factor B (Homo sapiens (Human), UniProt P00751). The experiment in a line: Human Complement Factor B TR-FRET Assay. Format: binding. Conditions: assay of Biological Example 2; read-out: hFactor-B TR-FRET Qualified IC50. As for the experimental part: The time-gated decrease in fluorescence intensity related to the competition between labeled and unlabeled factor B ligands was recorded at both 620 nm and 665 nm, 70 us after excitation at 337 nm using a microplate spectrofluorimeter.
As a reminder, the pIC50 is −log10 of the IC50, conventionally taken in molar units. `Cc1cc(C)c2[nH]ccc2c1C[C@@H]1CN(CC(F)(F)F)C[C@H]1c1ccc(C(=O)O)cc1` (racemic) [Ex-26, 4-(4-((5,7-dimethyl-1H-indol-4-yl)methyl)-1-(2,2,2-trifluoroethyl)pyrrolidin-3-yl)benzoic acid]: the pIC50 was > 4.52.
Take `Cc1cc(C)c2[nH]ccc2c1C[C@@H]1CN(C)C[C@H]1c1ccc(C(N)=O)cc1` (racemic) [Ex-58, Racemic 4-((3R*,4S*)-4-((5,7-dimethyl-1H-indol-4-yl)methyl)-1-methylpyrrolidin-3-yl)benzamide]: the pIC50 was > 4.52.
`CCN1C[C@@H](Cc2c(C3CC3)cc(C)c3[nH]ccc23)[C@H](c2ccc(-c3nnn[nH]3)cc2)C1` (racemic) [Ex-61, 4-((4-(4-(1H-tetrazol-5-yl)phenyl)-1-ethylpyrrolidin-3-yl)methyl)-5-cyclopropyl-7-methyl-1H-indole]: the pIC50 was > 7.00.
On to `Cc1cc(C)c2[nH]ccc2c1C[C@@H]1CCN(CC(F)(F)F)C[C@H]1c1ccc(C(=O)O)cc1` [Ex-1, 4-((3R,4R)-4-((5,7-dimethyl-1H-indol-4-yl)methyl)-1-(2,2,2-trifluoroethyl)piperidin-3-yl)benzoic acid], for which the negative-log IC50 (pIC50) was > 7.00.
As to `Cc1cc(C)c2[nH]ccc2c1C[C@H]1CCN(CC(F)(F)F)C[C@@H]1c1ccc(C(=O)O)cc1` [Ex-2, 4-((3S,4S)-4-((5,7-dimethyl-1H-indol-4-yl)methyl)-1-(2,2,2-trifluoro-ethyl)piperidin-3-yl)benzoic acid], the negative logarithm of the IC50 (pIC50) was > 4.52.
For `Cc1cc(C2CC2)c(C[C@@H]2CCN(CC(F)(F)F)C[C@H]2c2ccc(C(=O)O)cc2)c2cc[nH]c12` [Ex-3, 4-((3R,4R)-4-((5-cyclopropyl-7-methyl-1H-indol-4-yl)methyl)-1-(2,2,2-trifluoroethyl)piperidin-3-yl)benzoic acid], the pIC50 is > 7.00.
For the compound `Cc1cc(C2CC2)c(C[C@H]2CCN(CC(F)(F)F)C[C@@H]2c2ccc(C(=O)O)cc2)c2cc[nH]c12` [Ex-4], the negative logarithm of the IC50 (pIC50) was > 4.52.
For `COc1cc(C)c2[nH]ccc2c1C[C@@H]1CCN(CC(F)(F)F)C[C@H]1c1ccc(C(=O)O)cc1` [Ex-5, 4-((3R,4R)-4-((5-methoxy-7-methyl-1H-indol-4-yl)methyl)-1-(2,2,2-trifluoroethyl)piperidin-3-yl)benzoic acid], the pIC50 was > 6.00.
As to `COc1cc(C)c2[nH]ccc2c1C[C@H]1CCN(CC(F)(F)F)C[C@@H]1c1ccc(C(=O)O)cc1` [Ex-6], the pIC50 is > 4.52.
Under `Cc1cc(C)c2[nH]ccc2c1C[C@@H]1CCN(C)C[C@H]1c1ccc(C(=O)O)cc1` [Ex-8, 4-((3R,4R)-4-((5,7-dimethyl-1H-indol-4-yl)methyl)-1-methylpiperidin-3-yl)benzoic acid] stands > 7.00; under `Cc1cc(C)c2[nH]ccc2c1C[C@H]1CCN(C)C[C@@H]1c1ccc(C(=O)O)cc1` [Ex-9], > 4.52; under `CCN1CC[C@@H](Cc2c(C)cc(C)c3[nH]ccc23)[C@H](c2ccc(C(=O)O)cc2)C1` [Ex-10, 4-((3R,4R)-4-((5,7-dimethyl-1H-indol-4-yl)methyl)-1-ethylpiperidin-3-yl)benzoic acid], > 7.00.
With `Cc1cc(C)c2[nH]ccc2c1C[C@@H]1CCN(CCF)C[C@H]1c1ccc(C(=O)O)cc1` [Ex-12, 4-((3R,4R)-4-((5,7-dimethyl-1H-indol-4-yl)methyl)-1-(2-fluoroethyl)piperidin-3-yl)benzoic acid], the negative-log IC50 (pIC50) is > 7.00.
Under `COCCN1CC[C@@H](Cc2c(C)cc(C)c3[nH]ccc23)[C@H](c2ccc(C(=O)O)cc2)C1` [Ex-14, 4-((3R,4R)-4-((5,7-dimethyl-1H-indol-4-yl)methyl)-1-(2-methoxyethyl)piperidin-3-yl)benzoic acid] stands > 7.00; under `Cc1cc(C)c2[nH]ccc2c1C[C@@H]1CCN(CC(C)(C)O)C[C@H]1c1ccc(C(=O)O)cc1` [Ex-15, 4-((3R,4R)-4-((5,7-dimethyl-1H-indol-4-yl)methyl)-1-(2-hydroxy-2-methylpropyl)piperidin-3-yl)benzoic acid], > 6.00.
Take `Cc1cc(C)c2[nH]ccc2c1C[C@@H]1CCN(CC2(F)COC2)C[C@H]1c1ccc(C(=O)O)cc1` [Ex-17, 4-((3R,4R)-4-((5,7-dimethyl-1H-indol-4-yl)methyl)-1-((3-fluorooxetan-3-yl)methyl)piperidin-3-yl)benzoic acid]: the pIC50 was > 7.00.
The value for `CCCN1CC[C@@H](Cc2c(C)cc(C)c3[nH]ccc23)[C@H](c2ccc(C(=O)O)cc2)C1` [Ex-20, 4-((3R,4R)-4-((5,7-dimethyl-1H-indol-4-yl)methyl)-1-propylpiperidin-3-yl)benzoic acid] was > 7.00; that for `Cc1cc(C)c2[nH]ccc2c1C[C@@H]1CCN(C2COC2)C[C@H]1c1ccc(C(=O)O)cc1` [Ex-21, 4-((3R,4R)-4-((5,7-dimethyl-1H-indol-4-yl)methyl)-1-(oxetan-3-yl)piperidin-3-yl)benzoic acid] was > 6.00; that for `Cc1cc(C)c2[nH]ccc2c1C[C@@H]1CCN([C@H]2C[C@H](F)C2)C[C@H]1c1ccc(C(=O)O)cc1` [Ex-22, 4-((3R,4R)-4-((5,7-dimethyl-1H-indol-4-yl)methyl)-1-((1r,3R)-3-fluorocyclobutyl)piperidin-3-yl)benzoic acid] was > 7.00.
Turning to `Cc1cc(C)c2[nH]ccc2c1C[C@@H]1CCN(CCC(F)F)C[C@H]1c1ccc(C(=O)O)cc1` [Ex-23, 4-((3R,4R)-1-(3,3-difluoropropyl)-4-((5,7-dimethyl-1H-indol-4-yl)methyl)piperidin-3-yl)benzoic acid], the pIC50 is > 7.00.
Regarding `Cc1cc(C)c2[nH]ccc2c1C[C@@H]1CCCN(C)C[C@H]1c1ccc(C(=O)O)cc1` [Ex-27, 4-((3R,4S)-4-((5,7-dimethyl-1H-indol-4-yl)methyl)-1-methylazepan-3-yl)benzoic acid], the pIC50 was > 7.00.
On to `CCN1CCC[C@@H](Cc2c(C)cc(C)c3[nH]ccc23)[C@H](c2ccc(C(=O)O)cc2)C1` [Ex-29, 4-((3R,4S)-4-((5,7-dimethyl-1H-indol-4-yl)methyl)-1-ethylazepan-3-yl)benzoic acid], for which the pIC50 is > 7.00.
As to `Cc1cc(C)c2[nH]ccc2c1C[C@@H]1CCN(C)CC[C@H]1c1ccc(C(=O)O)cc1` [Ex-30, 4-((4R,5R)-5-((5,7-dimethyl-1H-indol-4-yl)methyl)-1-methylazepan-4-yl)benzoic acid], the negative-log IC50 (pIC50) is > 7.00.
Take `Cc1cc(C)c2[nH]ccc2c1C[C@@H]1CCN(CCC(F)F)CC[C@H]1c1ccc(C(=O)O)cc1` [Ex-32, 4-((4R,5R)-1-(3,3-difluoropropyl)-5-((5,7-dimethyl-1H-indol-4-yl)methyl)azepan-4-yl)benzoic acid]: the pIC50 is > 6.00.
The value for `Cc1ccc(C[C@@H]2CCN(C)C[C@H]2c2ccc(C(=O)O)cc2)c2cc[nH]c12` [Ex-33, 4-((3R,4R)-1-methyl-4-((7-methyl-1H-indol-4-yl)methyl)piperidin-3-yl)benzoic acid] was > 7.00; that for `Cc1cc(F)c(C[C@@H]2CCN(C)C[C@H]2c2ccc(C(=O)O)cc2)c2cc[nH]c12` [Ex-35, 4-((3R,4R)-4-((5-fluoro-7-methyl-1H-indol-4-yl)methyl)-1-methylpiperidin-3-yl)benzoic acid] was > 7.00; that for `Cc1cc(Cl)c(C[C@@H]2CCN(C)C[C@H]2c2ccc(C(=O)O)cc2)c2cc[nH]c12` [Ex-36, 4-((3R,4R)-4-((5-chloro-7-methyl-1H-indol-4-yl)methyl)-1-methylpiperidin-3-yl)benzoic acid] was > 7.00.
`CN1CC[C@@H](Cc2c(Cl)cc(Cl)c3[nH]ccc23)[C@H](c2ccc(C(=O)O)cc2)C1` [Ex-37, 4-((3R,4R)-4-((5,7-dichloro-1H-indol-4-yl)methyl)-1-methylpiperidin-3-yl)benzoic acid]: the pIC50 is > 7.00.
Consider `Cc1cc(Cl)c2[nH]ccc2c1C[C@@H]1CCN(C)C[C@H]1c1ccc(C(=O)O)cc1` [Ex-38, 4-((3R,4R)-4-((7-chloro-5-methyl-1H-indol-4-yl)methyl)-1-methylpiperidin-3-yl)benzoic acid], for which the pIC50 is > 7.00.
Under `Cc1cc(C)c2[nH]cc(Cl)c2c1C[C@@H]1CCN(C)C[C@H]1c1ccc(C(=O)O)cc1` [Ex-39, 4-((3R,4R)-4-((3-chloro-5,7-dimethyl-1H-indol-4-yl)methyl)-1-methylpiperidin-3-yl)benzoic acid] stands > 7.00; under `Cc1cc(C)c2[nH]ccc2c1C[C@@H]1CCN(C)C[C@H]1c1ccc(-c2nnn[nH]2)cc1` [Ex-42, 4-(((3R,4R)-3-(4-(1H-tetrazol-5-yl)phenyl)-1-methylpiperidin-4-yl)methyl)-5,7-dimethyl-1H-indole], > 7.00.
`Cc1cc(C)c2[nH]ccc2c1C[C@@H]1CCN(CC(F)(F)F)C[C@H]1c1ccc(-c2nnn[nH]2)cc1` [Ex-43, 4-(((3R,4R)-3-(4-(1H-tetrazol-5-yl)phenyl)-1-(2,2,2-trifluoroethyl)piperidin-4-yl)methyl)-5,7-dimethyl-1H-indole]: the negative-log IC50 (pIC50) is > 7.00.
Consider `Cc1cc(C)c2[nH]ccc2c1C[C@@H]1CCN(C)C[C@H]1c1ccc(C#N)cc1` [Ex-44, 4-((3R,4R)-4-((5,7-dimethyl-1H-indol-4-yl)methyl)-1-methylpiperidin-3-yl)benzonitrile], for which the pIC50 is > 6.00.
For the compound `Cc1cc(C)c2[nH]ccc2c1C[C@@H]1CCN(CC(F)(F)F)C[C@H]1c1ccc(C#N)cc1` [Ex-45, 4-((3R,4R)-4-((5,7-dimethyl-1H-indol-4-yl)methyl)-1-(2,2,2-trifluoroethyl)piperidin-3-yl)benzonitrile], the pIC50 was > 4.52.
Consider `Cc1cc(C)c2[nH]ccc2c1C[C@@H]1CCN(C)C[C@H]1c1ccc(-n2cccn2)cc1` [Ex-46, 4-(((3R,4R)-3-(4-(1H-pyrazol-1-yl)phenyl)-1-methylpiperidin-4-yl)methyl)-5,7-dimethyl-1H-indole], for which the negative logarithm of the IC50 (pIC50) is > 7.00.
`Cc1cc(C)c2[nH]ccc2c1C[C@@H]1CCN(CC(F)(F)F)C[C@H]1c1ccc(-n2cccn2)cc1` [Ex-47, 4-(((3R,4R)-3-(4-(1H-pyrazol-1-yl)phenyl)-1-(2,2,2-trifluoroethyl)piperidin-4-yl)methyl)-5,7-dimethyl-1H-indole]: the negative-log IC50 (pIC50) is > 6.00.

These data come from patent US20250223277A1, “COMPLEMENT FACTOR B INHIBITORS AND USES THEREOF” (Novartis AG, priority 2022, published 2025).
